Test results as given in ChEMBL document CHEMBL1201862, “PubChem BioAssay data set” (2004).
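In this assay, cells in 96-well plates receive the compound at five concentrations for 48 hours. Endpoints are linearly interpolated between the surrounding concentrations. Abbreviation: GI50, concentration required for 50% inhibition of growth.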 Activity calls are given as the source filed them. Rule as the data show it: active = GI50 up to about 1.1 µM and inactive = higher.

Columns and labels:
Assay in all cases: NCI-60 cell line screen, 48 h
786-0 = system: 786-0
A498 = system: A498
A549 = system: A549
ACHN = system: ACHN
BT-549 = system: BT-549
CAKI-1 = system: CAKI-1
CCRF-CEM = system: CCRF-CEM
COLO 205 = system: COLO 205
DLD-1 = system: DLD-1
DMS-114 = system: DMS-114
DMS-273 = system: DMS-273
DU-145 = system: DU-145
EKVX = system: EKVX
HCC 2998 = system: HCC 2998
HCT-116 = system: HCT-116
HCT-15 = system: HCT-15
HL-60 = system: HL-60
HOP-18 = system: HOP-18
HOP-62 = system: HOP-62
HOP-92 = system: HOP-92
HT-29 = system: HT-29
Hs-578T = system: Hs-578T
IGROV-1 = system: IGROV-1
K562 = system: K562
KM-20L2 = system: KM-20L2
KM12 = system: KM12
LOX IMVI = system: LOX IMVI
LXFL 529 = system: LXFL 529
M14 = system: M14
M19-MEL = system: M19-MEL
MCF7 = system: MCF7
MDA-MB-231 = system: MDA-MB-231
MDA-MB-435 = system: MDA-MB-435
MDA-N = system: MDA-N
MOLT-4 = system: MOLT-4
Malme-3M = system: Malme-3M
NCI-H226 = system: NCI-H226
NCI-H23 = system: NCI-H23
NCI-H460 = system: NCI-H460
NCI-H522 = system: NCI-H522
NCI/ADR-RES = system: NCI/ADR-RES
OVCAR-3 = system: OVCAR-3
OVCAR-4 = system: OVCAR-4
OVCAR-5 = system: OVCAR-5
OVCAR-8 = system: OVCAR-8
PC-3 = system: PC-3
RPMI-8226 = system: RPMI-8226
RXF 393 = system: RXF 393
RXF 631 = system: RXF 631
SF-268 = system: SF-268
SF-295 = system: SF-295
SF-539 = system: SF-539
SK-MEL-28 = system: SK-MEL-28
SK-MEL-2 = system: SK-MEL-2
SK-MEL-5 = system: SK-MEL-5
SK-OV-3 = system: SK-OV-3
SN12C = system: SN12C
SNB-19 = system: SNB-19
SNB-75 = system: SNB-75
SNB-78 = system: SNB-78
SR = system: SR
SW-620 = system: SW-620
T47D = system: T47D
TK-10 = system: TK-10
U-251 = system: U-251
UACC-257 = system: UACC-257
UACC-62 = system: UACC-62
UO-31 = system: UO-31
XF498 = system: XF498

Q: Which GI50 (786-0) does the source give for N=C(N)NCCCS(=O)(=O)Nc1ccc(Nc2c3ccccc3nc3cc([N+](=O)[O-])ccc23)cc1 here?
A: 19.2 µM (inactive)

Q: What about the GI50 (A498) of the same compound?
A: 17.5 µM (inactive)

Q: And the GI50 (A549)?
A: 5.31 µM (inactive)

Q: And the GI50 (ACHN)?
A: 21.4 µM (inactive)

Q: What about the GI50 (BT-549) of the same compound?
A: 27.2 µM (inactive)

Q: What about the GI50 (CAKI-1) of the same compound?
A: 40.8 µM (inactive)

Q: And the GI50 (CCRF-CEM)?
A: 12.6 µM (inactive)

Q: And the GI50 (COLO 205)?
A: 14.5 µM (inactive)

Q: And the GI50 (DLD-1)?
A: 30.1 µM (inactive)

Q: And the GI50 (DMS-114)?
A: 4.72 µM (inactive)

Q: And the GI50 (DMS-273)?
A: 4.21 µM (inactive)

Q: And the GI50 (DU-145)?
A: 9.33 µM (inactive)

Q: What about the GI50 (EKVX) of the same compound?
A: 15.7 µM (inactive)

Q: What about the GI50 (HCC 2998) of the same compound?
A: 14.7 µM (inactive)

Q: What about the GI50 (HCT-116) of the same compound?
A: 16.5 µM (inactive)

Q: What about the GI50 (HCT-15) of the same compound?
A: > 85.9 µM

Q: What about the GI50 (HL-60) of the same compound?
A: 22.3 µM (inactive)

Q: What about the GI50 (HOP-18) of the same compound?
A: 20.8 µM (inactive)

Q: And the GI50 (HOP-62)?
A: 14.5 µM (inactive)

Q: And the GI50 (HOP-92)?
A: 4.9 µM (inactive)

Q: And the GI50 (HT-29)?
A: 16.9 µM (inactive)

Q: And the GI50 (Hs-578T)?
A: 12.5 µM (inactive)

Q: What about the GI50 (IGROV-1) of the same compound?
A: 18.4 µM (inactive)

Q: And the GI50 (K562)?
A: 22.3 µM (inactive)

Q: What about the GI50 (KM-20L2) of the same compound?
A: 23.9 µM (inactive)

Q: What about the GI50 (KM12) of the same compound?
A: 10.2 µM (inactive)

Q: What about the GI50 (LOX IMVI) of the same compound?
A: 16.4 µM (inactive)

Q: And the GI50 (LXFL 529)?
A: 5.62 µM (inactive)

Q: What about the GI50 (M14) of the same compound?
A: 16.4 µM (inactive)

Q: And the GI50 (M19-MEL)?
A: 3.63 µM (inactive)

Q: And the GI50 (MCF7)?
A: 2.53 µM (inactive)

Q: What about the GI50 (MDA-MB-231) of the same compound?
A: 35.2 µM (inactive)

Q: And the GI50 (MDA-MB-435)?
A: > 100 µM (inactive)

Q: And the GI50 (MDA-N)?
A: 21.3 µM (inactive)

Q: What about the GI50 (MOLT-4) of the same compound?
A: 2.33 µM (inactive)

Q: What about the GI50 (Malme-3M) of the same compound?
A: 10.1 µM (inactive)

Q: And the GI50 (NCI-H226)?
A: 11.7 µM (inactive)

Q: What about the GI50 (NCI-H23) of the same compound?
A: 4.65 µM (inactive)

Q: And the GI50 (NCI-H460)?
A: 0.265 µM (active)

Q: What about the GI50 (NCI-H522) of the same compound?
A: 7.06 µM (inactive)

Q: What about the GI50 (NCI/ADR-RES) of the same compound?
A: 19.6 µM (inactive)

Q: What about the GI50 (OVCAR-3) of the same compound?
A: 15.6 µM (inactive)

Q: What about the GI50 (OVCAR-4) of the same compound?
A: 16.6 µM (inactive)

Q: What about the GI50 (OVCAR-5) of the same compound?
A: 25.4 µM (inactive)

Q: What about the GI50 (OVCAR-8) of the same compound?
A: 20.6 µM (inactive)

Q: And the GI50 (PC-3)?
A: 11.7 µM (inactive)

Q: What about the GI50 (RPMI-8226) of the same compound?
A: 3.8 µM (inactive)

Q: And the GI50 (RXF 393)?
A: 20.8 µM (inactive)

Q: And the GI50 (RXF 631)?
A: 25.7 µM (inactive)

Q: What about the GI50 (SF-268) of the same compound?
A: 6.19 µM (inactive)

Q: And the GI50 (SF-295)?
A: 20.3 µM (inactive)

Q: What about the GI50 (SF-539) of the same compound?
A: 20.3 µM (inactive)

Q: And the GI50 (SK-MEL-28)?
A: 18.1 µM (inactive)

Q: And the GI50 (SK-MEL-2)?
A: 21.6 µM (inactive)

Q: And the GI50 (SK-MEL-5)?
A: 5.55 µM (inactive)

Q: And the GI50 (SK-OV-3)?
A: 17.3 µM (inactive)

Q: And the GI50 (SN12C)?
A: 4.83 µM (inactive)

Q: And the GI50 (SNB-19)?
A: 2.9 µM (inactive)

Q: What about the GI50 (SNB-75) of the same compound?
A: 13 µM (inactive)

Q: And the GI50 (SNB-78)?
A: 21.4 µM (inactive)

Q: And the GI50 (SR)?
A: 5.42 µM (inactive)

Q: What about the GI50 (SW-620) of the same compound?
A: 14.9 µM (inactive)

Q: And the GI50 (T47D)?
A: 0.728 µM (active)

Q: And the GI50 (TK-10)?
A: 21.2 µM (inactive)

Q: And the GI50 (U-251)?
A: 4.05 µM (inactive)

Q: What about the GI50 (UACC-257) of the same compound?
A: 22.5 µM (inactive)

Q: And the GI50 (UACC-62)?
A: 12.1 µM (inactive)

Q: What about the GI50 (UO-31) of the same compound?
A: > 68.4 µM (inactive)

Q: What about the GI50 (XF498) of the same compound?
A: 1.91 µM (inactive)
